{"source": "patent US8653026B2", "about": "“Treatment of type 2 diabetes with FTY720” (Diapin Therapeutics LLC, priority 2011, dated 2014)", "key": {"[1]": {"test_system": "isolated pancreatic islets", "experiment": "Glucose-stimulated insulin secretion by isolated normal islets ex vivo", "format": "cell-based, mouse", "conditions": "islets from 8 weeks old normal C57/BL6 mice, 0.2 μM FTY720, 24 hours", "protocol": "Islets were isolated from 8 weeks old normal C57/BL6 mice and treated with or without 0.2 μM FTY720 in the culture medium without FBA for 24 hours. Then the islets were stimulated with glucose and secreted insulin was measured using an Ultra Sensitive Mouse Insulin ELISA Kit (Crystal Chem Inc., Downers Grove, Ill.) and total proteins of islets were measured."}, "db/db mice": {"test_system": "db/db mice", "experiment": "Intraperitoneal glucose tolerance test", "format": "in vivo, mouse", "conditions": "db/db mice fasted 16 h, i.p. 10% glucose 1 mg/g; treated vs untreated", "protocol": "FIG. 5A. Intraperitoneal glucose tolerance test (GTT). The mice of both groups were fasted for 16 hours and intraperitoneally injected with 10% glucose (1 mg/g body weight). Glucose levels were then measured after 0, 30, 60, 90, 120 min by a Glucometer Elite (Bayer Corp., Elkhart, Ind.). Open circle (∘), FTY720-untreated group; solid circle (●), FTY720-treated group. *p<0.01.\nFor the glucose tolerance test, the mice were fasted for 16 h and intraperitoneally injected with 10% glucose (1 mg/g of body weight). Glucose levels were then measured after 0, 30, 60, 90, and 120 min by a Glucometer Elite (Bayer Corp., Elkhart, Ind.) (29). For the insulin tolerance test, the mice were fasted for 6 h and injected intraperitoneally with human regular insulin (0.55 units/kg) (Sigma). Tail blood samples were collected at 0, 30, 40, 60, 90, and 120 min for glucose measurement (30, 31)."}, "Bcl-xL": {"test_system": "Bcl-xL", "experiment": "Bcl-xL mRNA levels in islets of db/db mice", "format": "in vivo, mouse", "conditions": "islets from FTY720-treated db/db mice vs untreated", "protocol": "FIG. 10B. Levels of Bcl-xL mRNA levels of the db/db mice with (+FTY720) or without FTY720 (−FTY720) treatment. *p=0.002\nIslets were isolated from pancreases removed from the 13-week-old untreated and FTY720-treated db/db mice by Liberase (Roche Diagnostics) digestion, followed by discontinuous Ficoll gradient separation and manual stereomicroscopic selection to exclude contaminating tissues (30). Isolated islets (or INS-1 cells) were cultured in the medium (composed of RPMI 1640 medium supplemented with 10% fetal bovine serum, 2 mM L-glutamine, 1% sodium pyruvate, 50 μM β-mercaptoethanol, 100 units/ml of penicillin, and 100 μg/ml of streptomycin). For treatment of INS-1 cells, the cells were plated in RPMI medium overnight and changed to Hanks' balanced salt solution containing 2 mM glucose and 0.5% FBS overnight. Then the cells were treated with various conditions in the same medium for 24 hours.\nTo determine the mechanism of action (MOA) behind the increase in beta-cell mass observed in the treated mice, beta-cell survival was examined."}}}
{"smiles": "CCCCCCCCc1ccc(CCC(N)(CO)CO)cc1", "note": "[FTY720, 2-amino-2-[2-(4-octylphenyl)ethyl]propane-1,3-diol]", "values": [{"measurement": "glucose-stimulated insulin secretion", "setting": "[1]", "result": "does not affect"}, {"measurement": "glucose tolerance", "setting": "db/db mice", "result": "significantly improved"}, {"measurement": "Bcl-xL mRNA levels", "setting": "Bcl-xL", "result": "significantly increased"}]}
